Measured values taken from PMC12169663, “Deciphering the Tumor Uptake of Heterobivalent (SST2/Albumin) [^64Cu]Cu-NODAGA-cLAB-TATEs” (Journal of Medicinal Chemistry, 2025).
*1 amine or outer side, *2 acyl side, *3 side chain or, on linkers, in order; H or OH if unused. Where a SMILES comes first, the peptide text is derived from it. Bridges are numbered along the chain shown (N, C = ends). [ ]: non-standard residue; d: D form. The star is where a group is joined. Ala(1-(4-CO-Ph)triazol-4-yl) = O=C([C@H](Cc1cn(-c2ccc(C(=O)[*:3])cc2)nn1)N[*:1])[*:2]; X1 = O=C(O)CN1CCN(CC(=O)O)CCN([C@H](CCC(=O)*)C(=O)O)CC1; X2 = Cc1ccc(CCCC(=O)NCCCC[C@H](N*)C(N)=O)cc1; AEEA = NCCOCCOCC(=O)O

Tests used:
[1] = target: T1, SST2 (Mus musculus, UniProt P30875); experiment: Saturation binding analysis to SST2 using intact MPC cells
T1 construct: a mouse pheochromocytoma cell line (MPC) with a high endogenous abundance of SST2 was used; endogenous in cells; host or cells: MPC (mouse pheochromocytoma) cells, intact
T1 sequence (P30875 whole entry): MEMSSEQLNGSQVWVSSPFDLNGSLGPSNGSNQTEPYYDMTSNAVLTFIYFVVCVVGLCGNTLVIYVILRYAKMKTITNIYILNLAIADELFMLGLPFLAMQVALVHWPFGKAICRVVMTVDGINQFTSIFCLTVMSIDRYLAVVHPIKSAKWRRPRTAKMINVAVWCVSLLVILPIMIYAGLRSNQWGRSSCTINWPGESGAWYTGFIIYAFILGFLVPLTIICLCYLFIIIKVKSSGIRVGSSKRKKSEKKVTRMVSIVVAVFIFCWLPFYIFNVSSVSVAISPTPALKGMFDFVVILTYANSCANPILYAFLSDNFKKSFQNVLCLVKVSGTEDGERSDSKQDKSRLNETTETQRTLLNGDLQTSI
Method: Binding assay was performed as previously described. , A number of 3 × 10^5 cells/cm^2 were seeded in collagen-coated 48-well microplates (CELLSTAR 48 Well Cell Culture Multiwell Plates, Polystyrene, Greiner Bio-One, item no. 677180) and grown for 3 days. For binding assays, the cell culture medium was removed and replaced by fresh medium supplemented with the radioligand (Am = 25 MBq/nmol) at increasing final concentrations between 0.321 and 40 nM (final sample volume: 0.2 mL). Nonspecific cell binding was measured in the presence of nonlabeled DOTA-TATE or Acetyl-TATE at a final concentration of 1 μM. Nonspecific binding to plastic surfaces was determined in cell-free wells at radioligand concentrations of 0.312, 1.25, 5, and 20 nM (with and without 1 μM nonlabeled DOTA-TATE or Acetyl-TATE; the values at the other radioligand concentrations were derived by linear regression). Samples were incubated for 60 min at 37 °C. Incubation was stopped by washing with ice-cold Dulbecco’s PBS. Cells were lysed with 0.1 M NaOH containing 1% (w/v) SDS. Activity was measured in cell homogenates and in a series of radioligand standards containing increasing molar amounts between 0.06 and 8 pmol using the gamma counter Wizard (PerkinElmer). The protein content of cell homogenates was measured as described above. Measurements for total binding were performed in triplicate, while measurements for nonspecific binding were performed in duplicates.
Calculations were performed as previously described. , Plots of “total binding” = f(radioligand) were analyzed by nonlinear regressions using the model of “one site-total, accounting for ligand depletion” as implemented in GraphPad Prism and plots of “nonspecific binding” = f(radioligand) were analyzed by linear regressions (Figure S3). For the ligand depletion model, the term “NS” was constrained to the respective slopes obtained by the linear regressions. The terms “SpecAct” (obtained with standard curves, Figure S4) and “Vol” (0.2 mL, assay volume) were also constrained. […]

[2] = Plasma stability assay, human plasma; type: in vitro ADME; conditions: 37 °C, up to 24 h, single experiment, read-out: t1/2 (plasma), human
Source text: Previously, we discovered that the ^64Cu-labeled NODAGA-cLAB-TATEs with a primary amide functionality within the albumin-binding moiety are subject to a metabolic transformation in mouse plasma. In fact, the primary amide is slowly hydrolyzed to the carboxylic acid, which turned out to be catalyzed by plasma carboxylesterases as proven by blocking this transformation in the presence of bis-para-nitrophenylphosphate. […] As this transformation entails also an increase in the binding affinity to albumin, there might be effects on the biodistribution in mice, in particular the blood circulation time. To investigate this, NODAGA-cLAB6-TATE was designed, with cLAB6 (N3Bz-D-Lys(MPB)-NH2) representing the D-configured pendant of cLAB4 (N3Bz-L-Lys(MPB)-NH2). […] However, the apparent half-lives for both compounds (≈13 and >24 h) are longer compared to the half-lives previously determined for [ ^ 64 Cu]-Cu-NODAGA-cLAB3-TATE and [ ^ 64 Cu]-Cu-NODAGA-cLAB4-TATE (≈6 and ≈3 h, respectively). […]
Plasma stability of the radioligands was done as previously described for NODAGA-cLAB-TATE and NODAGA-NES-TATEs. , Briefly, an aliquot of the radioligand was added to plasma and stability was assessed at different time points by withdrawing an aliquot, followed by protein precipitation and analysis by radio-HPLC.

[3] = target: HSA (Homo sapiens, UniProt P02768); experiment: Estimation of Kd[HSA] from structure-activity relationships of the isolated cLABs
Chain of HSA (P02768 25-609): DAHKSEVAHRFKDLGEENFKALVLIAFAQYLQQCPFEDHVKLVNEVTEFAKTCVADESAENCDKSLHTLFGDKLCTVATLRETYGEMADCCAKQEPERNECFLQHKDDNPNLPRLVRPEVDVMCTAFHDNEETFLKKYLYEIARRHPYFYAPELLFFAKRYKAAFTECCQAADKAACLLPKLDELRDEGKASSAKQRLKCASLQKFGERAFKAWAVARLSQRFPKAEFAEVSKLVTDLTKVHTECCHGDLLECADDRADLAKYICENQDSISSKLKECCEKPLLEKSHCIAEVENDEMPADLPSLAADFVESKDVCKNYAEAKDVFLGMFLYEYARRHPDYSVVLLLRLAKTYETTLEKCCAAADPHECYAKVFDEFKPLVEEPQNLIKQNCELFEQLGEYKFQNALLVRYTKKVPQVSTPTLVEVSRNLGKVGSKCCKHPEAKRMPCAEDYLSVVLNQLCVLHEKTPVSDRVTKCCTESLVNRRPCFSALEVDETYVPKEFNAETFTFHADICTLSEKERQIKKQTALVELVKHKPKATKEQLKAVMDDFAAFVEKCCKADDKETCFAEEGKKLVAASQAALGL
Source text: Table S1: Comparison of estimated and determined Kd[HSA] values for the 64Cu-labeled TATE derivatives bearing an albumin […]
predicted determinedi predict./determ. cLAB1 R1-pentanoyl-D-Lys(IPB)-OH 8.0a 3.1j 2.6 cLAB2 R1-benzoyl-L-Lys(IPB)-OH 0.36b 1.8j 0.2 cLAB3 R1-benzoyl-L-Lys(IPB)-NH2 7.9c 9.2j 0.9 […]
cLAB4-scrTATE R1-benzoyl-L-Lys(MPB)-NH2 66d 42 1.6 a Represents the Kd value of the albumin binder (R)-1e (5-N3-pentanoyl-D-Lys(IPB)-OH).1 b Represents the Kd value of the albumin binder (S)-1f (4-N3-benzoyl-L-Lys(IPB)-OH).1 c Calculated using the Kd value of the respective carboxylic acid ((S)-1f) and a factor of 22, which is the factor between Acetyl-L-Lys(IPB)-OH ((S)-1c) an Acetyl-L-Lys(IPB)-NH2 ((S)-2a).1 […]
f Calculated using the Kd value of the respective carboxylic acid ((S)-1f) and the factors of 22 (carboxylic acid → carboxamide) and 2.2 (L → D configuration, factor between (S)-1c and (R)-1c).1 g Represents the Kd value determined for the non-radioactive compound using the fluorescence-based competition […]
h Compound names were abbreviated. i Determined using the radiometric ultrafiltration assay described in the main article. j Previously determined by us.1

[4] = n-Octanol/PBS distribution coefficient (log D7.4)
Method: The log D7.4 values of the ^64Cu-labeled peptides were determined with the octanol partitioning method.
The determination of the log D7.4 value was done in triplicate as previously described. , Briefly, a sample of the radioligand was added to the 1:1 mixture of PBS/n-octanol. The radioactivity in a defined volume of each layer was measured (ISOMED 2100). The distribution coefficient was expressed as the logarithm of the ratio of counts per minute (cpm) measured in the n-octanol phase to the cpm measured in the PBS phase.

[5] = target: human serum albumin (HSA) (Homo sapiens, UniProt P02768); experiment: Radiometric ultrafiltration assay for binding to HSA
Chain of human serum albumin (HSA) (P02768 25-609): as above
Method: The ultrafiltration assay used to quantify the binding of the ^64Cu-labeled peptides to HSA was performed as previously described for NODAGA-cLAB-TATEs. , Briefly, a constant activity amount of the radioligands (10–15 MBq) were mixed with different HSA concentrations (200 nM–1.4 mM). Aliquots were loaded into the ultrafiltration devices (4104 centrifugal filter units by Millipore; 30 000 Da nominal molecular weight limit, methylcellulose micropartition membranes) and centrifuged. After centrifugation, aliquots from the top and bottom fractions were measured in a γ-counter (PerkinElmer, Wizard^2 2480 automatic gamma counter). The retained fraction was calculated as a quotient of these measurements. The dissociation constant, K d, was calculated using the Morrison equation.

[6] = Small-animal PET imaging in subcutaneous MPC tumor allograft model; conditions: female, NMRI-nu/nu (Rj:NMRI-Foxn1nu/nu), mouse, iv, total radioactivity
Method: (§1) The biodistribution of [ ^ 64 Cu]­Cu-NODAGA-cLAB­(5/6)-TATE, [ ^ 64 Cu]­Cu-NODAGA-cLAB4- scr TATE, and [ ^ 64 Cu]­Cu-DOTA-EB-TATE was assessed in a subcutaneous MPC tumor allograft model via small-animal PET imaging (Figure A–D). The time-activity curves (TACs) for tumor, kidneys, and heart are shown in Figure A–D (for TACs of muscle and liver, see Figure S6) and the calculated areas under curves (AUC0–48h) and tumor-to-tissue ratios are graphically summarized in Figure E,F, respectively.
(§2) (A–D) Time-activity curves (SUV, decay-corrected, as a function of time up to 48 h) obtained by PET acquisition are depicted (0–2 h in dynamic mode and time points 5, 24, and 48 h p.i.; the x-axes are segmented accordingly). Data shown are mean values (±SD) of a group of MPC tumor-bearing NMRI-nu/nu mice (n = 2, but for cLAB6-TATE n = 4). […] (E) Calculated AUC0–48h values. Data shown are mean values (±SD). (F) Tumor/organ ratios based in the AUC0–48h values.
(§3) A number of 4 × 10^6 MPC cells were resuspended in 40 μL of Dulbecco’s phosphate-buffered saline and injected subcutaneously into the shoulder of 7–10-week-old female nude mice (Rj:NMRI-Foxn1^nu/nu, Janvier Laboratories, Le Genest-Saint-Isle, France). General anesthesia was induced and maintained with inhalation of 10% (v/v) desflurane in 30% oxygen/air (v/v). Tumor growth was monitored using caliper measurements. Animals were sacrificed using CO2 inhalation and cervical dislocation. When diameters of MPC tumors reached 8 ± 3 mm (volumes of 65–282 mm^3), small-animal positron emission tomography (PET) was performed using the nanoScan PET/CT (Mediso Medical Imaging Systems, Budapest, Hungary) and Si78 PET/CT (BRUKER, Billerica, MA) instruments. Scanners were cross-calibrated using a syringe source containing 10 MBq of [^64Cu]­CuCl2 diluted in 2 mL of 0.01 M HCl. Each mouse (n = 2) received between 7 and 10 MBq of the respective radioligand (A m = 40 GBq/μmoL) delivered in 0.154 M NaCl via intravenous injection through a tail vein catheter within the initial 30 s after scan start. […] Standardized uptake values (SUV = [MBq detected activity/mL tissue]/[MBq injected activity/g body weight]) were determined in defined volumes of interest (VOIs) and reported as VOI-averaged SUVmean ± range [min–max]. Assuming a density of 1 g/mL for body tissues, the SUVs become dimensionless.

[7] = tested on: MPC tumor-bearing NMRI-nu/nu mice; experiment: as above
Method: as §1, §2, §3

Cc1ccc(CCCC(=O)NCCCC[C@H](NC(=O)c2ccc(-n3cc(C[C@H](NC(=O)CC[C@H](C(=O)O)N4CCN(CC(=O)O)CCN(CC(=O)O)CC4)C(=O)NCCOCCOCC(=O)N[C@@H](CCCCN)C(=O)N[C@H]4CSSC[C@@H](C(=O)N[C@H](C(=O)O)[C@@H](C)O)NC(=O)[C@@H](Cc5c[nH]c6ccccc56)NC(=O)[C@@H](Cc5ccccc5)NC(=O)[C@H]([C@@H](C)O)NC(=O)[C@H](Cc5ccc(O)cc5)NC4=O)nn3)cc2)C(N)=O)cc1 [[64Cu]Cu-NODAGA-cLAB4-scrTATE, metal not drawn] (X1-[Ala(1-(4-CO-Ph)triazol-4-yl)](X2)[AEEA]KCYT[dF][dW]CT-OH; disulfide 4-9)
Kd [SST2] ([1]; 60 min 37 °C, mean (±SEM) of 2–4 experiments): no binding was detected and n.b. | Bmax ([1]; mean (±SEM)): n.b. | half-life [2]: > 24 h | Ratio Kd predict./determ. [3]: 1.6 | logD [4]: -2.17 | Kd [5]: 42 µM | SUV at 24 h ([6]; muscle): 0.04 SUV | SUV at 24 h ([6]; tumor): 0.49 SUV | integral tumor uptake relative to [64Cu]Cu-NODAGA-cLAB4-TATE ([7]; AUC0–48h): less than 10% | AUC0-48h heart ([7]; PET, i.v., 7–10 MBq/animal): 41.09 SUVmean*h | AUC0-48h kidney ([7]; PET, i.v., 7–10 MBq/animal): 59.26 SUVmean*h | AUC0-48h liver ([7]; PET, i.v., 7–10 MBq/animal): 25.84 SUVmean*h | AUC0-48h tumor ([7]; PET, i.v., 7–10 MBq/animal): 25 SUVmean*h | AUC0-48h tumor ([7]; PET, i.v., 7–10 MBq/animal, listed as cLAB4-scrTATE): 25.35 SUVmean*h | AUC0–48h muscle ([7]; mouse, in vivo): 5.5 SUVmean*h | integral tumor uptake, fold lower than [64Cu]Cu-NODAGA-TATE ([7]; mouse, in vivo): 6 fold | integral tumor uptake, fold lower than [64Cu]Cu-NODAGA-cLAB4-TATE ([7]; mouse, in vivo): 11 fold
